Assay results taken from ChEMBL document CHEMBL1140152, “Modified peptides as potent inhibitors of the postsynaptic density-95/N-methyl-D-aspartate receptor interaction” (J Med Chem, 2008).
Active and inactive are the calls of the source. No cut-off for these calls is given here. Where a SMILES comes first, the peptide text is derived from it. [ ]: non-standard residue; d: D form. NMeV = CN[C@H](C(=O)O)C(C)C; NMeS = CN[C@@H](CO)C(=O)O; hSer = N[C@@H](CCO)C(=O)O; Abu = CC[C@H](N)C(=O)O; Aib = CC(C)(N)C(=O)O

Tests used:
Disks large homolog 4 [1] = molecular target: T1, Disks large homolog 4 (Homo sapiens, UniProt P78352); assay: Binding affinity to human PSD95 domain PDZ2 expressed in Escherichia coli BL21-DE3 by fluorescence polarization assay
Target sequence in this assay (P78352 whole entry, looked up, the tested form may be a part): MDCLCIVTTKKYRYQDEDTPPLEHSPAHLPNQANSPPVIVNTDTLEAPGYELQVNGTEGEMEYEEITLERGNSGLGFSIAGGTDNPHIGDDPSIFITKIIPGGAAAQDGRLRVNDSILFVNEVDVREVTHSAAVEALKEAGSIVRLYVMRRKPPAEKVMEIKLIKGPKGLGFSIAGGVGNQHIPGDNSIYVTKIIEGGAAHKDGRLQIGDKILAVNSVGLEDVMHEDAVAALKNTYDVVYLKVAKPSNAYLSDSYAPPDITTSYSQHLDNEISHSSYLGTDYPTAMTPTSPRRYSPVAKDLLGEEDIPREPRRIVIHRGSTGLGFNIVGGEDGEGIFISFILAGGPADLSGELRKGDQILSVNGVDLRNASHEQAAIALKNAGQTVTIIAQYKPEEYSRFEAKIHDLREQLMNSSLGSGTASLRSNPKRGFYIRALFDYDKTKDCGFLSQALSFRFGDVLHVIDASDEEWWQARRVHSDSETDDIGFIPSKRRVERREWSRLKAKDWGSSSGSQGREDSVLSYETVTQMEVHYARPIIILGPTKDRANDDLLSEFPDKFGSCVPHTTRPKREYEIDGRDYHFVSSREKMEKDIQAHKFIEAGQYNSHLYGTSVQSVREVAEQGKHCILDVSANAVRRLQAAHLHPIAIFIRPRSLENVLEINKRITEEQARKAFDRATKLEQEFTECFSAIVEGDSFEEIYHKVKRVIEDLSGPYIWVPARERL

Disks large homolog 4 [2] = molecular target: T1, Disks large homolog 4; assay: Binding affinity to human PSD95 domain PDZ3 expressed in Escherichia coli BL21-DE3 by fluorescence polarization assay
Disks large homolog 4 [3] = molecular target: T1, Disks large homolog 4; assay: Binding affinity to human PSD95 domain PDZ1 expressed in Escherichia coli BL21-DE3 by fluorescence polarization assay
Target sequence in this assay (P78352 whole entry, looked up, the tested form may be a part): as above

Disks large homolog 4 [4] = molecular target: T1, Disks large homolog 4; assay: Binding affinity to human PSD95 domain PDZ1 expressed in Escherichia coli BL21-DE3 by fluorescence polarization assay
Target sequence in this assay (P78352 whole entry, the tested form may be a part): as the sequence (P78352 whole entry, looked up, the tested form may be a part) above

Disks large homolog 4 [5] = molecular target: T1, Disks large homolog 4; assay: Binding affinity to human PSD95 domain PDZ2 expressed in Escherichia coli BL21-DE3 by fluorescence polarization assay
Target sequence in this assay (P78352 whole entry, the tested form may be a part): as the sequence (P78352 whole entry, looked up, the tested form may be a part) above

Row | Activity (Disks large homolog 4 [1]) | Activity (Disks large homolog 4 [3]) | Compound | other results
1 | inactive | – | CC[C@H](NC(=O)[C@H](CC(=O)O)NC(=O)[C@H](CO)NC(=O)[C@@H](N)CCC(=O)O)C(=O)O (H-ESD[Abu]-OH) | –
2 | – | – | H-KSGYEKLSSIESDV-OH | Activity (Disks large homolog 4 [2]): inactive
3 | – | – | CC[C@H](C)[C@H](NC(=O)[C@H](CO)NC(=O)[C@H](CO)NC(=O)[C@H](CC(C)C)NC(=O)[C@H](CCCCN)NC(=O)[C@H](CCCNC(=N)N)NC(=O)[C@H](CCCNC(=N)N)NC(=O)[C@H](CCCNC(=N)N)NC(=O)[C@H](CCC(N)=O)NC(=O)[C@H](CCCNC(=N)N)NC(=O)[C@H](CCCNC(=N)N)NC(=O)[C@H](CCCCN)NC(=O)[C@H](CCCCN)NC(=O)[C@H](CCCNC(=N)N)NC(=O)CNC(=O)[C@@H](N)Cc1ccc(O)cc1)C(=O)N[C@@H](CCC(=O)O)C(=O)N[C@@H](CO)C(=O)N[C@@H](CC(=O)O)C(=O)N[C@H](C(=O)O)C(C)C | Activity (Disks large homolog 4 [2]): inactive
4 | – | – | CC(C)[C@H](NC(=O)[C@H](C)NC(=O)[C@@H](NC(=O)[C@H](CCC(=O)O)NCCC1CCCCC1)[C@@H](C)O)C(=O)O | Ki (Disks large homolog 4 [2]): 11000 nM
5 | inactive | inactive | CC(C)[C@H](NC(=O)[C@H](CC(=O)O)NC(=O)[C@H](CO)N(C)C(=O)[C@@H](N)CCC(=O)O)C(=O)O (H-E[NMeS]DV-OH) | –
6 | – | – | CN[C@@H](CCC(=O)O)C(=O)N[C@H](C(=O)N[C@@H](C)C(=O)N[C@H](C(=O)O)C(C)C)[C@@H](C)O | Ki (Disks large homolog 4 [4]): 11000 nM
7 | inactive | inactive | CC(C)(NC(=O)[C@H](CC(=O)O)NC(=O)[C@H](CO)NC(=O)[C@@H](N)CCC(=O)O)C(=O)O (H-ESD[Aib]-OH) | –
8 | inactive | inactive | CC(C)[C@H](NC(=O)[C@H](CC(=O)O)NC(=O)[C@@H](NC(=O)[C@@H](N)CCC(=O)O)C(C)(C)CO)C(=O)O | –
9 | inactive | inactive | CC(C)[C@H](NC(=O)[C@H](CC(=O)O)NC(=O)[C@H](CCO)NC(=O)[C@@H](N)CCC(=O)O)C(=O)O (H-E[hSer]DV-OH) | –
10 | – | – | CC(C)[C@H](NC(=O)[C@H](C)NC(=O)[C@@H](NC(=O)[C@H](CCC(=O)O)NCC1CCCCC1)[C@@H](C)O)C(=O)O | Ki (Disks large homolog 4 [4]): 1000 nM
11 | inactive | inactive | CC(C)[C@@H](C(=O)O)N(C)C(=O)[C@H](CC(=O)O)NC(=O)[C@H](CO)NC(=O)[C@@H](N)CCC(=O)O (H-ESD[NMeV]-OH) | –
12 | – | – | CC(C)[C@H](NC(=O)[C@H](C)NC(=O)[C@@H](NC(=O)[C@H](CCC(=O)O)NCCc1ccc2ccccc2c1)[C@@H](C)O)C(=O)O | Ki (Disks large homolog 4 [4]): 1000 nM
13 | – | – | CC(C)[C@H](NC(=O)[C@H](C)NC(=O)[C@@H](NC(=O)[C@H](CCC(=O)O)NCCCc1ccc(F)c(F)c1)[C@@H](C)O)C(=O)O | Ki (Disks large homolog 4 [5]): 1000 nM
14 | inactive | inactive | CC(C)[C@H](NC(=O)[C@H](CC(=O)O)NC(=O)[C@@H](NC(=O)[C@@H](N)CCC(=O)O)[C@H](C)CO)C(=O)O | –
